Reference: patent publication US10172957B2, “Acid-labile lipophilic prodrugs of cancer chemotherapeutic agents” (priority 2011, dated 2019)
Read-outs that look alike come from different tables or passages of the source.

What was measured:
[1] = test system: MES-SA uterine sarcoma line; assay: MTT-based cytotoxicity assay, MES-SA; type: cell-based, human; settings: read-out: IC50 MESSA (Hs)
Source text: (§1) A second evaluation of the cytotoxicity of the acid labile, lipophilic molecular conjugates was undertaken.
(§2) These lines included a uterine sarcoma line, MES-SA, and its doxorubicin-resistant subline, MES-SA/Dx5. See W. G. Harker, F. R MacKintosh, and B. I. Sikic. Development and characterization of a human sarcoma cell line, MES-SA, sensitive to multiple drugs. Cancer Research 43: 4943-4950 (1983); W. G. Harker and B. I. Sikic. Multidrug (pleiotropic) resistance in doxorubicin-selected variants of the human sarcoma cell line MES-SA. Cancer Research 45: 4091 4096 (1985).
(§3) MES-SA/Dx5 cells express high levels of ABCB1 (MDR1) mRNA and its gene product, the P-glycoprotein. MES-SA and MES-SA/Dx5 were purchased from the American Type Culture Collection (ATCC, Manassas, Va.).

[2] = test system: MES-SA/Dx5 doxorubicin-resistant subline (MDR+); assay: cells; type: cell-based, human; settings: for Degree of resistance (MESSA/Dx5): IC50 of the resistant line divided by IC50 of sensitive MES-SA cells
Source text: as §1, §2, §3

CEM/VLB100 cells (MDR+) = assay: cells; type: cell-based, human; settings: for Degree of resistance (CEM/VLB100): IC50 of the resistant line divided by IC50 of sensitive CEM cells
Source text: as §1, §2
(§4) The second set of cells tested, CCRF-CEM or simply CEM, were derived from the blood of a patient with acute lymphoblastic leukemia. G. E. Foley, H. Lazarus, S. Farber, B. G. Uzman, B. A. Boone, and R E. McCarthy. Continuous culture of human lymphoblasts from peripheral blood of a child with acute leukemia. Cancer 18: 522-529 (1965). The subline CEM/VLB100 was developed to be resistant to up to vinblastine at 100 ng/ml. W. T. Beck, T. J. Mueller, and L. R. Tanzer. Altered surface membrane glycoproteins in Vinca alkaloid-resistant human leukemic lymphoblasts. Cancer Research 39: 2070-2076 (1979). Drug resistance is achieved by overexpression of the MDR1 gene. Resistance in the CEM subline designated CEM/VM-1-5, however, is “atypical.” M. K. Danks, J. C. Yalowich, and W. T. Beck. Atypical multiple drug resistance in a human leukemic cell line selected for resistance to teniposide (VM-26). Cancer Research 47: 1297-1301 (1987). The classes of drugs included in the “classic” multiple drug resistance phenotype are Vinca alkaloids, anthracyclines, epipodophyllotoxins and antibiotics. However, CEM/VM-1-5 cells retain sensitivity to the Vinca alkaloids despite resistance and cross-resistance to etoposide, anthracyclines and mitoxantrone. Danks, M. K.; Schmidt, C. A.; Cirtain, M. C.; Suttle, D. P.; Beck, W. T., Altered catalytic activity of and DNA cleavage by DNA topoisomerase II from human leukemic cells selected for resistance to VM-26. Biochemistry 1988, 27, 8861-8869. Resistance in CEM/VM-1-5 cells is effected by over expression of the […]. CEM, CEM/VLB100 and CEM/VM-1-5 cells were obtained from Dr. WT Beck, University of Illinois at Chicago.

CEM/VM-1-5 cells (MDR+) = assay: cells; type: cell-based, human; settings: for Degree of resistance (CEM/VM-1-5): IC50 of the resistant line divided by IC50 of sensitive CEM cells
Source text: A second evaluation of the cytotoxicity of the acid labile, lipophilic molecular conjugates was undertaken. […]
as §4

CCRF-CEM (CEM) cells = assay: MTT-based cytotoxicity assay, CEM; type: cell-based, human
Source text: as §1, §2, §4

[3] = test system: SK-N-AS cells (MDR− Neuroblastoma); assay: MTS proliferation assay using SK-N-AS cells; type: cell-based; settings: Homo sapiens, read-out: IC50 in SK-N-AS
Description: SK-N-AS cells were plated in appropriate growth medium at 5×10^3 per well in 100 μL in 96 well tissue culture plates, Falcon, one plate for each drug to be tested. Column 1 was blank; it contained medium, but no cells. The plates were incubated overnight at 37° C. in 5% CO2 to allow attachment.
Drug diluted in culture media was added to the cells at a concentration of 0.005 nM to 10 μM, in quadruplicate. After 48-72 hours of drug exposure, the MTS agent was added to all wells and incubated 1-6 hrs (37° C., 5% CO2), depending on cell type, as per CellTiter 96® AQueous Non-Radioactive Cell Proliferation Assay (MTS), Promega. Plates were processed using a Bio-Tek Synergy HT Multi-detection microtiter plate reader at 490 nanometer wavelength and data were processed with KC4V.3 software. Data plots of drug concentration vs. absorbance were plotted and the concentration resulting in 50% inhibition (IC50) was extrapolated for each of the tested compounds.
As summarized in Table 1, the IC50 value for each tested compound in the SK-N-AS cell line was determined. The clinical comparator drug, paclitaxel, was included in the experiment to allow comparison of the results of the candidate compounds to a clinically relevant standard in the taxane class.

[4] = Homo sapiens, read-out: IC50 CEM/VM-1-5 (MDR + HTL), CEM/VM-1-5, MTT
[5] = SK-N-AS (MDR− Neuroblastoma), MTS, 48-72 hours drug exposure

CC[C@]1(O)C[C@@H]2CN(CCc3c([nH]c4ccccc34)[C@@](C(=O)OC)(c3cc4c(cc3OC)N(C)[C@H]3[C@@](O)(C(=O)OC)[C@H](OC(C)=O)[C@]5(CC)C=CCN6CC[C@]43[C@@H]65)C2)C1 [Vinblastine, vinblastine, reference compound]
IC50 ([1]; Homo sapiens, MES-SA): 1.1 ± 0.3 nM
IC50 ([2]; Homo sapiens, MES-SA/Dx5, read-out: IC50 MESSA/Dx5 (MDR + Hs)): 43 ± 12 nM
Degree of resistance (MESSA/Dx5) [2]: 38.5 ± 0.7
Degree of resistance (CEM/VLB100) (CEM/VLB100 cells (MDR+)): 255 ± 127
IC50 (CEM/VM-1-5 cells (MDR+); [4]): 1.3 ± 0.9 nM
Degree of resistance (CEM/VM-1-5) (CEM/VM-1-5 cells (MDR+)): 1.2 ± 0.07
IC50 (CCRF-CEM (CEM) cells; Homo sapiens, CCRF-CEM, read-out: IC50 CEM (HTL), CEM human T-lymphoblastoid, MTT): 1 ± 0.8 nM

CC/C=C\C/C=C\C/C=C\C/C=C\C/C=C\C/C=C\CCCOC(=O)O[C@@H]1C(=O)C=C(C)[C@@H]2C[C@H]3OC(=O)C(OC(=O)CC(O)(C(C)C)C(C)C)C4[C@@H](C)[C@@H](O)[C@]5(O)OC[C@@]43C5[C@@]12C (stereo partly drawn) [ART 449]
IC50 [3, 5]: 4 ± 0.5 nM

C=CCCCCOC(=O)O[C@@H]1C(=O)C=C(C)[C@@H]2C[C@H]3OC(=O)C(OC(=O)CC(O)(C(C)C)C(C)C)C4[C@@H](C)[C@@H](O)[C@]5(O)OC[C@@]43C5[C@@]12C (stereo partly drawn) [ART 448]
IC50 [3, 5]: 5 ± 0.7 nM

CCOC(CBr)O[C@@H]1C(=O)C=C(C)[C@@H]2C[C@H]3OC(=O)C(OC(=O)CC(O)(C(C)C)C(C)C)C4[C@@H](C)[C@@H](O)[C@]5(O)OC[C@@]43C5[C@@]12C (stereo partly drawn) [ART 470]
IC50 [3, 5]: 349 ± 15 nM

CC(=O)O[C@H]1C(=O)[C@@]2(C)[C@H]([C@H](OC(=O)c3ccccc3)[C@]3(O)C[C@H](OC(=O)[C@H](O)[C@@H](NC(=O)c4ccccc4)c4ccccc4)C(C)=C1C3(C)C)[C@]1(OC(C)=O)CO[C@@H]1C[C@@H]2O [Paclitaxel, paclitaxel, reference compound]
IC50 ([1]; Homo sapiens, MES-SA): 9 ± 7 nM
Degree of resistance (MESSA/Dx5) [2]: 3105 ± 2416
IC50 (CEM/VM-1-5 cells (MDR+); [4]): < 11 nM
Degree of resistance (CEM/VM-1-5) (CEM/VM-1-5 cells (MDR+)): 4
IC50 ([3]; SK-N-AS): 0.05 ± 0.01 nM

CCCCCCCCCCC1(C)OCC(COC(=O)O[C@@H]2C(=O)C=C(C)[C@@H]3C[C@H]4OC(=O)[C@H](OC(=O)CC(O)(C(C)C)C(C)C)[C@H]5[C@@H](C)[C@@H](O)[C@]6(O)OC[C@@]54[C@H]6[C@@]23C)O1 (stereo partly drawn) [ART 332]
IC50 [3, 5]: 1.1 ± 0.5 nM

CC1=CC(=O)[C@@H](OC(CBr)OC(C)(C)C)[C@]2(C)C3[C@]45CO[C@@]3(O)[C@H](O)[C@H](C)C4C(OC(=O)CC(O)(C(C)C)C(C)C)C(=O)O[C@@H]5C[C@@H]12 (stereo partly drawn) [ART 471]
IC50 [3, 5]: 262 ± 12 nM

CCCCCCCCCCCCCCCCCCOC(CBr)O[C@@H]1C(=O)C=C(C)[C@@H]2C[C@H]3OC(=O)C(OC(=O)CC(O)(C(C)C)C(C)C)C4[C@@H](C)[C@@H](O)[C@]5(O)OC[C@@]43C5[C@@]12C (stereo partly drawn) [ART 472]
IC50 [3, 5]: 1.19 ± 0.5 nM

CC1=CC(=O)[C@@H](OC(CBr)OC2CCCCC2)[C@]2(C)C3[C@]45CO[C@@]3(O)[C@H](O)[C@H](C)C4C(OC(=O)CC(O)(C(C)C)C(C)C)C(=O)O[C@@H]5C[C@@H]12 (stereo partly drawn) [ART 473]
IC50 [3, 5]: 12.6 ± 0.9 nM

doxorubicin [reference compound]
IC50 ([1]; MES-SA human sarcoma, MTT): 2 nM
Degree of resistance (MESSA/Dx5) [2]: 49
IC50 ([2]; MES-SA/Dx5, MTT, read-out: IC50 MESSA/Dx5 (MDR + Hs)): 97 nM
IC50 (CEM/VLB100 cells (MDR+); CEM/VLB100, MTT, read-out: IC50 CEM/VLB100 (MDR + HTL)): 2100 nM
Degree of resistance (CEM/VLB100) (CEM/VLB100 cells (MDR+)): 150
IC50 (CEM/VM-1-5 cells (MDR+); CEM/VM-1-5, MTT, read-out: IC50 CEM/VM-1-5 (MDR + HTL)): 3060 nM
Degree of resistance (CEM/VM-1-5) (CEM/VM-1-5 cells (MDR+)): 219
IC50 (CCRF-CEM (CEM) cells; CEM human T-lymphoblastoid, MTT, read-out: IC50 CEM (HTL)): 14 nM
